The nature of data set [1]: Volume of distribution in Wistar rat at 3 mg/kg, iv. The format is ADME, organism-based. More on the design: dose 3 mg/kg, route intravenous. The settings on record: in vivo, read-out: Vss.
A short description of data set [2]: Clearance in Wistar rat at 3 mg/kg, iv. Also noted: dose 3 mg/kg, route intravenous. The format is ADME, organism-based. Particulars: in vivo; call rule not given here.
The test system of the next data set is Rattus norvegicus. The data set can be described thus: Plasma concentration in Wistar rat at 10 mg/kg, po. The format is ADME, organism-based. More on the design: dose 10 mg/kg, route oral. Particulars: in vivo.
Data set [3] is described as follows: Half life in Wistar rat at 3 mg/kg, iv. The format is ADME, organism-based. Also noted: dose 3 mg/kg, route intravenous. The settings on record: in vivo.
A short description of data set [4]: Oral bioavailability in Wistar rat at 10 mg/kg, po. The format is ADME, organism-based. Particulars: in vivo.
Data set [5] can be described thus: AUC in Wistar rat at 10 mg/kg, po. Also noted: dose 10 mg/kg, route oral. The settings on record: plasma. The format is ADME, organism-based.
The nature of data set [6]: Cmax in Wistar rat at 10 mg/kg, po. The data set is classed as ADME, organism-based. Also noted: dose 10 mg/kg, route oral. Particulars: in vivo.
Data set [7] can be described thus: Half life in Wistar rat at 10 mg/kg, po. The format is ADME, organism-based. More on the design: dose 10 mg/kg, route oral. Particulars: in vivo.
For the next data set, the system named is Liver microsomes. The data set can be described thus: Metabolic stability in Wistar rat liver microsome. The data set is classed as ADME.

As for `O=C(O)C[C@@H](CN1CCc2cc(F)ccc21)NC(=O)[C@H](CC1CCCCC1)Nc1nc2ccc(Cl)cc2o1`, in [1], the Vd was 0.74 L/kg. Moreover, the clearance in data set [2] was found to be 1.39 L/h/kg. Further, in the data set on Rattus norvegicus, the concentration is over 1 µM. The same molecule showed a half-life in [3] of 1 h.
Take `C[C@@H](CN1CCc2cc(F)ccc21)NC(=O)[C@H](CC1CCCCC1)Nc1nc2cccc(Cl)c2o1`: in data set [4], the bioavailability was found to be 24%. The Vd in [1] stood at 2.57 L/kg. In [2], this molecule had a clearance of 1.99 L/h/kg. The area under the curve (AUC) in [5] was 1.08 µg·h/mL. Also, the Cmax in data set [6] was found to be 0.703 µM. Further, the figures for the half-life in [3] and in data set [7] were 2.3 h and 1.1 h, respectively.
`COc1ccc(NCCNC(=O)[C@H](CC2CCCCC2)Nc2nc3ccccc3o2)cc1` had a bioavailability in data set [4] of under 1%. For the same molecule, the Stability with Liver microsomes is given as under 5%. The Vd in [1] amounted to 1.63 L/kg. For the same molecule, the clearance in [2] is 0.684 L/h/kg. Besides, in data set [5], the AUC was 0.015 µg·h/mL. The Cp entry in the data set with Rattus norvegicus is “Not Active”. In addition, in [6], the Cmax amounted to 0.012 µM. In addition, the values for the half-life in data set [3] and in data set [7] were 4.8 h and 5.3 h, respectively.
Molecule `CCOC(=O)C[C@@H](CN1CCc2cc(F)ccc21)NC(=O)[C@H](CC1CCCCC1)Nc1nc2ccc(Cl)cc2o1` showed a bioavailability in [4] of 22%. Further, in [5], the AUC was 1.58 µg·h/mL. In the data set with Rattus norvegicus, the Cp entry is reported as “Not Active”. Further, the maximum concentration (Cmax) in data set [6] came out at 1.1 µM. This molecule also showed a half-life in [7] of 1 h.
In data set [4], `C[C@@H](CN1CC(C)(C)c2cc(F)ccc21)NC(=O)[C@H](CC1CCCCC1)Nc1nc2cccc(Cl)c2o1` showed a bioavailability of 15%. In addition, the Vd in [1] amounted to 0.9 L/kg. The molecule further gave a clearance in data set [2] of 0.606 L/h/kg. The molecule further gave an AUC in [5] of 2.4 µg·h/mL. In data set [6], this molecule returned a Cmax of 1.26 µM. Moreover, the half-life in data set [3] is 8.3 h; in data set [7] it was 5.1 h.
For the molecule `C[C@@H](CN1c2ccc(F)cc2CC1(C)C)NC(=O)[C@H](CC1CCCCC1)Nc1nc2cccc(Cl)c2o1`, the exposure (AUC) in [5] is 0.9 µg·h/mL. Moreover, in data set [7], the half-life was 4.1 h.
